Source: patent publication US20250163484A1, “Methods for Incorporating Azido Groups in Bacterial Capsular Polysaccharides” (PFIZER INC., priority 2022, published 2025)

Assays:
S. pneumoniae T14 [1] = type: cell-based, Streptococcus pneumoniae serotype 14; conditions: production medium + Galactose (30 g/L)
Procedure: (§1) FIGS. 1A-1D. Screen for azido sugar incorporation into S. pneumoniae T14 capsule polysaccharide. […] Bacteria were grown until the ΔOD600≥0 for >30 minutes, then lysed with 0.1% NLS for 30 minutes. Growth was measured offline using a spectrophotometer blanked with PBS at 600 nm. (FIG. 1A) azido incorporation into polysaccharide was then quantified via fluorescent labeling (FL) with normalization to refractive index (RI). MaxOD and End Of Fermentation time (EOF) are provided in (FIG. 1B) and (FIG. 1C), respectively. Polysaccharide was extracted using EtOH and CaCl2 and analyzed via SEC-RI for (FIG. 1D) polysaccharide titer. n=1-4, error bars=+/−StDev.
FIGS. 2A-2D Impact of 2AzGlcAc4 concentration on S. pneumoniae T14 growth and poly production in production medium supplemented with Galactose (30 g/L). […] (FIG. 2A) Growth was measured offline using a spectrophotometer blanked with PBS at 600 nm. At the end of fermentation, cultures were lysed with 0.1% NLS for 30 min. and polysaccharide was extracted via EtOH/CaCl2) precipitation. Polysaccharide titer (FIG. 2B) and size (FIG. 2C) were measured via SEC-RI and SEC-MALS, respectively. (FIG. 2D) azido incorporation was then quantified via fluorescent labeling (FL) and normalized to the refractive index (RI). n=3, error bars=+/−StDev.
FIGS. 3A-3E Impact of 2AzGlc concentration on S. pneumoniae T14 growth and polysaccharide production in production medium supplemented with Galactose (30 g/L). […] (FIG. 3A) Growth was measured offline using a spectrophotometer blanked with PBS at 600 nm. Cultures were lysed with 0.1% NLS for 30 min. and polysaccharide was extracted via EtOH/CaCl2) precipitation. Polysaccharide (FIG. 3B/FIG. 3C) titer and (FIG. 3D) size were measured via SEC-RI and SEC-MALS, respectively. (FIG. 3E) azido incorporation was then quantified via fluorescent labeling (FL) and normalized to the refractive index (RI). n=3, error bars=+/−StDev.
We tested the impact of 2AzGlc concentration on S. pneumoniae T14 growth, polysaccharide production, and azido incorporation by growing the bacteria in production media (supplemented with Glucose (dextrose, 30 g/L)) with various concentrations of 2AzGlc (0, 1, 5, 10, 20, 40, and 60 mM).

S. pneumoniae T14 [2] = assay: Growth of S. pneumoniae T14 in fermentation with azido sugar (OD600); type: cell-based, Streptococcus pneumoniae serotype 14
[3] = tested on: S. pneumoniae T14 capsule polysaccharide; type: cell-based, Streptococcus pneumoniae serotype 14; conditions: 2AzGlcAc4 2.5-10 mM, production medium + Galactose (30 g/L), DMSO 2%
Procedure: as §1
A SEC fluorescence and Refractive index assay (SEC-FL/RI) was used for azide measurement to confirm the incorporation of azide modification.
Click-It Cell Reaction Buffer kit and Alexa Fluor 488 Alkyne were purchased from Invitrogen.
The initial procedure when running the SEC-FL/RI was to prepare the sample to a target concentration of 0.01 mg/m by mixing a pre-diluted polysaccharide to the final target concentration with the Click Reaction mixture. The reaction mixture consisted of 2.67 mM CuSO4, 2.67 mg/mL cell additive reagent, and 20 uM Alexa Fluor Alkyne. This was mixed with the sample at a 3:1 ratio of reaction mixture to sample and incubated in the absence of light. Reactions were transferred to HPLC vials and ran on the SEC-FL/RI HPLC setup. The RI detector (RID) allowed for detection of the polysaccharide while the Fluorescence Detector (FLD) was used to determine the level of fluor incorporated into the polysaccharide sample. The ratio of the two peak areas gave a measurement for the amount of azide incorporated to the polysaccharide.
Later, in addition to the incubation of the sample for thirty minutes, a buffer exchange step was added that washed out the unreacted fluor as well as the reaction matrix reagents in order to improve the baselines of the FLD and RID during the HPLC run. This added greater resolution of the peak associated with the azide functionalized polysaccharide. The assay was useful for relative quantitation of azide incorporation into the polysaccharide but could not quantify an exact numerical concentration. To improve this aspect work was undertaken to use a polysaccharide with known levels of azido functionalization to make a standard curve that varied the % Azido while keeping the polysaccharide mass the same. This was done by mixing the known azido modified poly (polysaccharide) with specific amounts of native (unmodified) polysaccharide. A strong linear fit for the generated standard curve was seen.
The values for percent azide were able to be converted to a μM azide per mM polysaccharide by converting from % azide using the constant polysaccharide concentration.

[4] = Solubility of azido sugar in production medium; type: physicochemical; conditions: production medium supplemented with galactose (30 g/L), aqueous buffer; read-out: limit of solubility

With `CC(=O)OC[C@H]1OC(O)[C@H](N=[N+]=[N-])[C@@H](OC(C)=O)[C@@H]1O` (stereo partly drawn) [2AzGlcAc2, 3,6-Di-O-acetyl-2-azido-2-deoxy-D-glucopyranose] the polysaccharide production (S. pneumoniae T14 [1]; azido sugar 20 mM without DMSO) was “strongly inhibited” and the growth (S. pneumoniae T14 [2]; azido sugar 20 mM without DMSO, production medium + Galactose (30 g/L)) was “strongly inhibited”.

In the case of `[N-]=[N+]=N[C@H]1[C@H](O)[C@@H](CO)OC(O)[C@@H]1O` (stereo partly drawn) [3AzGlc, 3-azido-3-deoxy-D-glucopyranose], the “End Of Fermentation (EOF) time” value (S. pneumoniae T14 [2]; screen, azido sugar 1 mM, only in production medium + Galactose) is reported as “elongated”.

With `CC(=O)OC[C@H]1OC(OC(C)=O)[C@H](N=[N+]=[N-])[C@@H](OC(C)=O)[C@@H]1OC(C)=O` (stereo partly drawn) [2AzGlcAc4, 1,3,4,6-Tetra-O-acetyl-2-azido-2-deoxy-D-glucopyranose] the “FL/RI with increasing concentrations” value [3] was “did not cause an increase”, the polysaccharide titer (S. pneumoniae T14 [1]; 2AzGlcAc4 2.5, 5, 10 mM (not 7.5 mM), DMSO 2%) was “statistically significant reduction” and the impact on growth (S. pneumoniae T14 [2]; 2AzGlcAc4 2.5, 5, 7.5, 10 mM, production medium + Galactose (30 g/L), DMSO 2%) was “no impact”. For the same compound, the solubility [4] was at most 1000 µM.
